According to article PMC4457528, “Identification of Novel Small Molecule Inhibitors of Oncogenic RET Kinase” (PLoS ONE, 2015):
Like-named read-outs stand apart in the source and are kept apart here.

Experiments:
Assay in all cases: KinomeScan kinase panel, single concentration 10 µM
Format in all cases: binding
[1] = target: T1, KinomeScan kinase panel (Homo sapiens, UniProt Q15418); conditions: 10 µM, read-out: score (%)
T1 construct: purchased DiscoveRx (KinomeScan)

[2] = target: T2, KinomeScan kinase panel (Homo sapiens, UniProt Q9BRS2); conditions: read-out: score (%)
T2 construct: purchased DiscoveRx (KinomeScan)
T2 sequence (Q9BRS2 1-568): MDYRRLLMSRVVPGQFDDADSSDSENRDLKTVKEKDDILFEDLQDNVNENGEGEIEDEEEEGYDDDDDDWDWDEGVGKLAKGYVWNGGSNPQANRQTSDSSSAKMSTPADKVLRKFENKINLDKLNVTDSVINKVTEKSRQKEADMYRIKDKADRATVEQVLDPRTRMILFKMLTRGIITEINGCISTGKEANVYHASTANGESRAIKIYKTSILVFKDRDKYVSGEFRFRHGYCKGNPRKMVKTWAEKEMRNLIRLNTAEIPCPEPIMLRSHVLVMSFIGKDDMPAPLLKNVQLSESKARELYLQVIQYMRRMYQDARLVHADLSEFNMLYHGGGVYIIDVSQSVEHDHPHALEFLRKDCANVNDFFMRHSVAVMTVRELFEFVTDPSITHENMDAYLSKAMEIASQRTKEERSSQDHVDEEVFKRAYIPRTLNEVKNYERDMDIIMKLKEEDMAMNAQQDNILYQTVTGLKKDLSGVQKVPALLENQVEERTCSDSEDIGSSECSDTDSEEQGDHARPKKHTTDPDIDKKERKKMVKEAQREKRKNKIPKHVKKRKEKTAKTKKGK

[3] = target: T3, KinomeScan kinase panel (Homo sapiens, UniProt Q13188); conditions: MST2, 10 µM; read-out: score (%)
T3 construct: purchased DiscoveRx (KinomeScan)
T3 sequence (Q13188 1-491): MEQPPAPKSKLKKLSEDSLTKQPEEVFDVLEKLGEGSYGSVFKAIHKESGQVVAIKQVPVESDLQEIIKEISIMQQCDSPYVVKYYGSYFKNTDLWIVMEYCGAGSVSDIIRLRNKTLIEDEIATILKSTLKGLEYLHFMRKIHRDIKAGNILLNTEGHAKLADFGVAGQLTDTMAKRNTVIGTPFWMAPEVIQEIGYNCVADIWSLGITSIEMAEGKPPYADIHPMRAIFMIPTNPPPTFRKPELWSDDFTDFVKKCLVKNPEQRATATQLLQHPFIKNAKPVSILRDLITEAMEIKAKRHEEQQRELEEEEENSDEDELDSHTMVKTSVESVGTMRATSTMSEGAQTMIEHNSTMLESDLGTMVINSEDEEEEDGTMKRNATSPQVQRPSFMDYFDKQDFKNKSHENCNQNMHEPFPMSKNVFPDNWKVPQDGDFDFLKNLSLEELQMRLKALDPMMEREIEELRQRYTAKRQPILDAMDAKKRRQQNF

[4] = target: T4, KinomeScan kinase panel (Homo sapiens, UniProt Q96GD4); conditions: AURKB, 10 µM; read-out: score (%)
T4 construct: purchased DiscoveRx (KinomeScan)

[5] = target: T5, KinomeScan kinase panel (Homo sapiens, UniProt P31749); conditions: AKT1, 10 µM; read-out: score (%)
T5 construct: purchased DiscoveRx (KinomeScan)

[6] = target: T6, KinomeScan kinase panel (Homo sapiens, UniProt P30530); conditions: AXL, 10 µM; read-out: score (%)
T6 construct: purchased DiscoveRx (KinomeScan)
T6 sequence (P30530 26-894): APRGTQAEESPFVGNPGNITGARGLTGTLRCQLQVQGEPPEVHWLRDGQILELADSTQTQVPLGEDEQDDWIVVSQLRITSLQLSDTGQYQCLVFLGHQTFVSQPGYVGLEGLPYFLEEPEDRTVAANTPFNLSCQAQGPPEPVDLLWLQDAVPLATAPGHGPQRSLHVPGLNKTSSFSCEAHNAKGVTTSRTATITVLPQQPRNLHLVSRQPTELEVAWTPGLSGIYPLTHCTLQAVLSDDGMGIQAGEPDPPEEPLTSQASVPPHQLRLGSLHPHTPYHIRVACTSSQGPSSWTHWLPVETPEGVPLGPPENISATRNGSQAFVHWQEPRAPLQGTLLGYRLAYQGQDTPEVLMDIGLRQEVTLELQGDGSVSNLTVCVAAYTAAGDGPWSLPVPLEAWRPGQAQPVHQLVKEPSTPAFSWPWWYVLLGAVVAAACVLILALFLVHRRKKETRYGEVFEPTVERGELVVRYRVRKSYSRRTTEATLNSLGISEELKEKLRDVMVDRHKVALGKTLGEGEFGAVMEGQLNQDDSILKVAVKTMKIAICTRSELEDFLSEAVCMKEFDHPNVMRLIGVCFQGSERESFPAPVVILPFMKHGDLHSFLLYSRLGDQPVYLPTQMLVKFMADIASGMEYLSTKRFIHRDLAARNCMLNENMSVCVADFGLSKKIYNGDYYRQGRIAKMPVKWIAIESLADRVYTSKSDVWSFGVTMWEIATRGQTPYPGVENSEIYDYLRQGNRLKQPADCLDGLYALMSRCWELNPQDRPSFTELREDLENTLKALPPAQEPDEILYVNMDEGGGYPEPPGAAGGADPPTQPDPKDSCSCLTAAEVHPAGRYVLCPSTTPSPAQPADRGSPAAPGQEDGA

[7] = target: T7, KinomeScan kinase panel (Homo sapiens, UniProt P41240); conditions: CSK, 10 µM
T7 construct: purchased DiscoveRx (KinomeScan)

[8] = target: T8, KinomeScan kinase panel (Homo sapiens, UniProt P42680); conditions: 10 µM, read-out: score (%)
T8 construct: purchased DiscoveRx (KinomeScan)
T8 sequence (P42680 1-631): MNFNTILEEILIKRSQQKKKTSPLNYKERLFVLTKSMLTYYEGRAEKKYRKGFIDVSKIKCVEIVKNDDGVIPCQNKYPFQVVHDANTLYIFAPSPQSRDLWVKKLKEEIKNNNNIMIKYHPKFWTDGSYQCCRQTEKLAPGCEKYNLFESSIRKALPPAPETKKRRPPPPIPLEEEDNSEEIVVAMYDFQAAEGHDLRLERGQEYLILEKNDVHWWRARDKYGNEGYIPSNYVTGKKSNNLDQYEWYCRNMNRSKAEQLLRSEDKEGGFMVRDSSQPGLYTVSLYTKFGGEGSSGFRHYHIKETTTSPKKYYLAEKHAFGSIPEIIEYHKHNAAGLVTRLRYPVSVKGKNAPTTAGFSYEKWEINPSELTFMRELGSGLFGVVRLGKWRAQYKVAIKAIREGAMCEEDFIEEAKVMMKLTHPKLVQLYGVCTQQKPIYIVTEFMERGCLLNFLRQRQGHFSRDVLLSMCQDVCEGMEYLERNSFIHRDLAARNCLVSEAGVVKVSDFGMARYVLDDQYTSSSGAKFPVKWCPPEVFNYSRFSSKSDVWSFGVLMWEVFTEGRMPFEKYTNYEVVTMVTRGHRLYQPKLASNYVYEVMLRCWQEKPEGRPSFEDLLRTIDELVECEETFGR

T4 sequence (Q96GD4 whole entry): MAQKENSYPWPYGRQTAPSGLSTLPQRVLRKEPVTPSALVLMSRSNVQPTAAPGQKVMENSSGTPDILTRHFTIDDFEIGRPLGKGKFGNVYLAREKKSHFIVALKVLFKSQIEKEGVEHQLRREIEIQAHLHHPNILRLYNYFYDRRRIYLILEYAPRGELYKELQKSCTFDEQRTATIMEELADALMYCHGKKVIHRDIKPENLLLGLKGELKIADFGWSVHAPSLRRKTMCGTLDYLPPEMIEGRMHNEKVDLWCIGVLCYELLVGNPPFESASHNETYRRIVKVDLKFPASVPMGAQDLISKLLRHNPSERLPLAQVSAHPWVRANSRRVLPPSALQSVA
T1 sequence (Q15418 whole entry): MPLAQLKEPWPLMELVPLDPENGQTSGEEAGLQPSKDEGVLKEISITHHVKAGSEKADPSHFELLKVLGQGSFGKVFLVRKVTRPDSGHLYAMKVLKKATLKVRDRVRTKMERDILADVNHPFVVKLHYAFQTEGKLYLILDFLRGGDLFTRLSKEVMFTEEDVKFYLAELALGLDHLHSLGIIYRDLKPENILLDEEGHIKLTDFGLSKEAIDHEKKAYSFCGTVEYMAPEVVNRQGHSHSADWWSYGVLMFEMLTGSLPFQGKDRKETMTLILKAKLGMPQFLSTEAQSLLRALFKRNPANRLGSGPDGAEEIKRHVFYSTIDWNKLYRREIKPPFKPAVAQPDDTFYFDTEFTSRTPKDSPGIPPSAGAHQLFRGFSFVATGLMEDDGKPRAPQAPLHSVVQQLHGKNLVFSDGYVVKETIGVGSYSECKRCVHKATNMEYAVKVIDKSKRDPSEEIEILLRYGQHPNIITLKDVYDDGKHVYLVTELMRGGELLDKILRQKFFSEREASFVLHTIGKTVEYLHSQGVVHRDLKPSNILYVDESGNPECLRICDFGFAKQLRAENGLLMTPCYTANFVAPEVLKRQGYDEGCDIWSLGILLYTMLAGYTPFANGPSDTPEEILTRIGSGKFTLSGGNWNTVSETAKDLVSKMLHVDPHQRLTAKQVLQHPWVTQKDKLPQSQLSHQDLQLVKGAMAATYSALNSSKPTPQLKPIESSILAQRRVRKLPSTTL
T5 sequence (P31749 whole entry): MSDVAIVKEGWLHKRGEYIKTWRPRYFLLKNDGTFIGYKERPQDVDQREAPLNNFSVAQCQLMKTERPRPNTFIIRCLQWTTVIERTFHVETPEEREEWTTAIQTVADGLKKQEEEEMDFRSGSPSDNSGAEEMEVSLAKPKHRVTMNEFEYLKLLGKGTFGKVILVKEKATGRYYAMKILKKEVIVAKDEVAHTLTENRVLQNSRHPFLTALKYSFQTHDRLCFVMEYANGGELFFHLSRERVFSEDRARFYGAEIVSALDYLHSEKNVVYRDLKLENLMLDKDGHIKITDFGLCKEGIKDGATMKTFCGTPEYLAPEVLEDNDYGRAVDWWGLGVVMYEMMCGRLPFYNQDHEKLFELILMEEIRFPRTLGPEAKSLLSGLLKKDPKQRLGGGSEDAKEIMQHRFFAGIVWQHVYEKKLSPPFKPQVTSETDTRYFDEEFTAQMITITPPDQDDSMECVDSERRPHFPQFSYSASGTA

| remaining binding at 10 µM ([1]; RPS6KA1(Kin.Dom.1)) | remaining binding at 10 µM ([1]; RPS6KA1(Kin.Dom.2)) | remaining binding at 10 µM ([8]; TEC) | Compound | remaining binding at 10 µM ([1]; RPS6KA1(Kin.Dom.1-N-terminal)) | remaining binding at 10 µM ([1]; RPS6KA1(Kin.Dom.2-C-terminal)) | remaining binding at 10 µM ([2]; RIOK1, 10 µM) | remaining binding at 10 µM [3] | remaining binding at 10 µM [4] | remaining binding at 10 µM [5] | remaining binding at 10 µM [6] | score (%) [7] | remaining binding at 10 µM ([8]; kinase TEC) | remaining binding at 10 µM ([1]; kinase RSK1(Kin.Dom.1-N-terminal)) | remaining binding at 10 µM ([1]; kinase RSK1(Kin.Dom.2-C-terminal)) | remaining binding at 10 µM ([2]; kinase RIOK1, 10 µM) |
| --- | --- | --- | --- | --- | --- | --- | --- | --- | --- | --- | --- | --- | --- | --- | --- |
|  |  |  | CCN1CCN(Cc2ccc(NC(=O)c3ccc(C)c(NC(=O)c4cncc(-c5cccs5)c4)c3)cc2C(F)(F)F)CC1 [ALW-II-41-27] | > 30% | > 30% | > 30% | > 30% | > 30% | 4.4% | > 30% | 0.65% | 1.7% |  |  |  |
| > 30% | > 30% | 1.2% | CCN1CCN(Cc2ccc(NC(=O)c3ccc(C)c(/C=C/c4cnc5[nH]ccc5c4Cl)c3)cc2C(F)(F)F)CC1 [HG-6-63-01, (E)-3-(2-(4-chloro-1H-pyrrolo[2,3-b]pyridin-5-yl)vinyl)-N-(4-((4-ethylpiperazin-1-yl)methyl)-3-(trifluoromethyl)phenyl)-4-methylbenzamide] |  |  | 0.2% | 10% | 6.6% | > 30% | 17% | 2.1% |  |  |  |  |
|  |  |  | CCN1CCN(Cc2ccc(NC(=O)c3ccc(C)c(C#Cc4cccnc4)c3)cc2C(F)(F)F)CC1 [XMD15-44] |  |  |  | > 30% | 24% | > 30% | 2.9% | 0.15% | 3.7% | 53% | 7.2% | 90% |
